Experimental data: patent US20220106296A1, “CYANOTRIAZOLE COMPOUNDS AND USES THEREOF” (Novartis AG, priority 2018, published 2022)

What was measured:
[1] = system: T. b. brucei Lister427 bloodstream form parasites; assay: T. b. brucei growth inhibition assay (CellTiter-Glo, 48 hours); type: cell-based; conditions: Trypanosoma brucei
From the text: Bloodstream form of T. b. brucei Lister427 strain was obtained from the Genomics Institute of the Novartis Research Foundation. This strain was used for carrying out growth inhibition and kill kinetics assays. T. b. gambiense STIB930 and T. b. rhodesiense STIB900 were obtained from Swiss TPH, were used for carrying out the growth inhibition assays.
Bloodstream form T. b. brucei Lister 427 parasites were continuously passaged in HMI-9 medium formulated from IMDM medium (Invitrogen), 10% heat-inactivated fetal bovine serum (FBS), 10% Serum Plus medium supplement (SAFC Biosciences), 1 mM hypoxanthine (Sigma-Aldrich), 50 μM bathocuproine disulfonic acid (Sigma-Aldrich), 1.5 mM cysteine (Sigma-Aldrich), 1 mM pyruvic acid (Sigma-Aldrich), 39 μg/mL thymidine (Sigma-Aldrich), and 14 μL/L beta-mercapthoethanol (Sigma-Aldrich); all concentrations of added components refer to that in complete HMI-9 medium. The parasites were cultured in 10 mL of HMI-9 medium in T75 CELL-STAR tissue culture flasks at 37° C./5% CO2.
To determine compound growth inhibitory potency on T. b. brucei Lister427 bloodstream form parasites, 200 nL of 10-point, 3 fold serially diluted compounds in DMSO were transferred to the wells of white, solid bottom 384-well plates (Greiner Bio-One) by either Echo 555 acoustic liquid handling system or Mosquito. Then, 1×10^4 of T. b. brucei parasites in 40 μL of HMI-9 medium were added to each well, and the plates were incubated for 48 hours at 37° C. in 5% CO2 incubators. Parasite numbers in individual plate wells were determined through quantification of intracellular ATP amount. The CellTiter-Glo luminescent cell viability reagent (Promega) was added to plate wells, and ATP-dependent luminescence signal was measured on Tecan M1000 plate Reader after 30 min incubation. Luminescence values in wells with compounds were divided by the average luminescence value of the plate DMSO controls, and used for calculation of compound IC50 values.

[2] = system: intracellular T. cruzi amastigotes; assay: T. cruzi amastigote growth inhibition assay (NIH 3T3 host cells, β-galactosidase readout); type: cell-based; conditions: Trypanosoma cruzi, NIH3T3, read-out: (c) T.c.* IC50
Experimental: NIH 3T3 fibroblast cells (ATCC) were maintained in RPMI-1640 medium (Life Technologies) supplemented with 10% heat-inactivated fetal bovine serum and 100 IU penicillin/100 μg/ml streptomycin at 37° C./5% CO2. T. cruzi Tulahuen parasites constitutively expressing E. coli β-galactosidase were maintained in tissue culture as an infection in NIH 3T3 fibroblast cells. Briefly, 2×10^7 T. cruzi trypomastigotes were used to infect 6×10^5 NIH 3T3 cells growing in T75 CELLSTAR tissue culture flasks and cultured at 37° C./5% CO2 until proliferating intracellular parasites lysed host 3T3 cells and were released into the culture medium (typically 6-7 days). During the infection, the tissue culture medium was changed every two days. Number of T. cruzi trypomastigotes present in 1 ml of medium was determined using a haemocytometer.
To determine compound potency on intracellular T. cruzi amastigotes, NIH 3T3 cells were re-suspended in phenol red-free RPMI-1640 medium containing 3% heat-inactivated fetal bovine serum and 100 IU penicillin/100 μg/ml streptomycin, seeded at 1,000 cells/well (40 μl) in white, clear bottom 384-well plates (Greiner Bio-One), and incubated overnight at 37° C./5% CO2. The following day, 100 nl of each compound in DMSO were transferred to individual plate wells by Echo 555 acoustic liquid handling system. After one hour incubation, 1×10^6 of tissue culture-derived T. cruzi trypomastigotes, in 10 μl of phenol red-free RPMI-1640 medium supplemented with 3% heat-inactivated fetal bovine serum and 100 IU penicillin/100 μg/ml streptomycin were added to each well. Plates were then incubated for 6 days at 37° C./5% CO2. Intracellular T. cruzi parasites were quantified by measuring the activity of parasite-expressed β-galactosidase. Ten microliters of a chromogenic β-galactosidase substrate solution (0.6 mM chlorophenol red-β-D-galactopyranoside/0.6% NP-40 in PBS; both reagents from Calbiochem) were added to each well and incubated for 2 h at room temperature. After incubation, absorption was measured at 570 nm on SpectraMax M2 plate reader (Molecular Devices). Measured absorbance values in wells with compounds were divided by the average absorbance value of the plate DMSO controls, and used for calculation of compound EC50 values as described above.

Compound	IC50 [1] [nM]	IC50 [2] [nM]
N#Cc1ncn(CC(=O)N2Cc3ccc(-c4cccnc4C(F)F)cc3C2)n1 [Example 1, 1-(2-(5-(2-(difluoromethyl)pyridin-3-yl)isoindolin-2-yl)-2-oxoethyl)-1H-1,2,4-triazole-3-carbonitrile]	100 to 1000	100 to 1000
N#Cc1ncn(CC(=O)N2Cc3ccc(-c4c(Cl)cncc4C(F)(F)F)cc3C2)n1 [Example 2, 1-(2-(5-(3-chloro-5-(trifluoromethyl)pyridin-4-yl)isoindolin-2-yl)-2-oxoethyl)-1H-1,2,4-triazole-3-carbonitrile]	100 to 1000	< 100
N#Cc1ncn(CC(=O)N2Cc3ccc(-c4cc(F)ncc4Cl)cc3C2)n1 [Example 3, 1-(2-(5-(5-chloro-2-fluoropyridin-4-yl)isoindolin-2-yl)-2-oxoethyl)-1H-1,2,4-triazole-3-carbonitrile]	< 100	< 100
N#Cc1ncn(CC(=O)N2Cc3ccc(-c4cccc(Cl)c4C(F)(F)F)cc3C2)n1 [Example 4, 1-(2-(5-(3-chloro-2-(trifluoromethyl)phenyl)isoindolin-2-yl)-2-oxoethyl)-1H-1,2,4-triazole-3-carbonitrile]	< 100	< 100
N#Cc1ncn(CC(=O)N2Cc3ccc(-c4cccnc4OCC(F)(F)F)cc3C2)n1 [Example 5, 1-(2-oxo-2-(5-(2-(2,2,2-trifluoroethoxy)pyridin-3-yl)isoindolin-2-yl)ethyl)-1H-1,2,4-triazole-3-carbonitrile]	100 to 1000	100 to 1000
Cc1ccc(-c2ccc3c(c2)CN(C(=O)Cn2cnc(C#N)n2)C3)c(C(F)(F)F)n1 [Example 6, 1-(2-(5-(6-methyl-2-(trifluoromethyl)pyridin-3-yl)isoindolin-2-yl)-2-oxoethyl)-1H-1,2,4-triazole-3-carbonitrile]	< 100	< 100
N#Cc1ncn(CC(=O)N2Cc3ccc(-c4c(C(F)(F)F)ccnc4Cl)cc3C2)n1 [Example 7, 1-(2-(5-(2-chloro-4-(trifluoromethyl)pyridin-3-yl)isoindolin-2-yl)-2-oxoethyl)-1H-1,2,4-triazole-3-carbonitrile]	100 to 1000	< 100
N#Cc1ncn(CC(=O)N2Cc3ccc(-c4cncc(F)c4C(F)(F)F)cc3C2)n1 [Example 9, 1-(2-(5-(5-fluoro-4-(trifluoromethyl)pyridin-3-yl)isoindolin-2-yl)-2-oxoethyl)-1H-1,2,4-triazole-3-carbonitrile]	100 to 1000	100 to 1000
N#Cc1ncn(CC(=O)N2Cc3ccc(-c4c(F)cc(F)cc4Cl)cc3C2)n1 [Example 10, 1-(2-(5-(2-chloro-4,6-difluorophenyl)isoindolin-2-yl)-2-oxoethyl)-1H-1,2,4-triazole-3-carbonitrile]	< 100	< 100
N#Cc1ncn(CC(=O)N2Cc3ccc(-c4ccc(F)cc4N4CCCC4)cc3C2)n1 [Example 11, 1-(2-(5-(4-fluoro-2-(pyrrolidin-1-yl)phenyl)isoindolin-2-yl)-2-oxoethyl)-1H-1,2,4-triazole-3-carbonitrile]	100 to 1000	100 to 1000
N#Cc1ncn(CC(=O)N2Cc3ccc(-c4c(F)cccc4C(F)(F)F)cc3C2)n1 [Example 12, 1-(2-(5-(2-fluoro-6-(trifluoromethyl)phenyl)isoindolin-2-yl)-2-oxoethyl)-1H-1,2,4-triazole-3-carbonitrile]	< 100	< 100
Cc1ncccc1-c1ccc2c(c1)CN(C(=O)Cn1cnc(C#N)n1)C2 [Example 13, 1-(2-(5-(2-methylpyridin-3-yl)isoindolin-2-yl)-2-oxoethyl)-1H-1,2,4-triazole-3-carbonitrile]	100 to 1000	100 to 1000
COc1ccc(-c2ccc3c(c2)CN(C(=O)Cn2cnc(C#N)n2)C3)c(C(F)(F)F)n1 [Example 14, 1-(2-(5-(6-methoxy-2-(trifluoromethyl)pyridin-3-yl)isoindolin-2-yl)-2-oxoethyl)-1H-1,2,4-triazole-3-carbonitrile]	100 to 1000	< 100
N#Cc1ncn(CC(=O)N2Cc3ccc(-c4c(F)ccc(F)c4Cl)cc3C2)n1 [Example 15, 1-(2-(5-(2-chloro-3,6-difluorophenyl)isoindolin-2-yl)-2-oxoethyl)-1H-1,2,4-triazole-3-carbonitrile]	< 100	< 100
N#Cc1ncn(CC(=O)N2Cc3ccc(-c4c(F)cncc4C(F)(F)F)cc3C2)n1 [Example 16, 1-(2-(5-(3-fluoro-5-(trifluoromethyl)pyridin-4-yl)isoindolin-2-yl)-2-oxoethyl)-1H-1,2,4-triazole-3-carbonitrile]	100 to 1000	< 100
N#Cc1ncn(CC(=O)N2Cc3ccc(-c4cccnc4OC(F)(F)F)cc3C2)n1 [Example 17, 1-(2-oxo-2-(5-(2-(trifluoromethoxy)pyridin-3-yl)isoindolin-2-yl)ethyl)-1H-1,2,4-triazole-3-carbonitrile]	100 to 1000	100 to 1000
N#Cc1ncn(CC(=O)N2Cc3ccc(-c4c(Cl)ccnc4C(F)(F)F)cc3C2)n1 [Example 18, 1-(2-(5-(4-chloro-2-(trifluoromethyl)pyridin-3-yl)isoindolin-2-yl)-2-oxoethyl)-1H-1,2,4-triazole-3-carbonitrile]	100 to 1000	< 100
N#Cc1ncn(CC(=O)N2Cc3ccc(-c4cccnc4CC(F)(F)F)cc3C2)n1 [Example 19, 1-(2-oxo-2-(5-(2-(2,2,2-trifluoroethyl)pyridin-3-yl)isoindolin-2-yl)ethyl)-1H-1,2,4-triazole-3-carbonitrile]	100 to 1000	100 to 1000
N#Cc1ncn(CC(=O)N2Cc3ccc(-c4c(F)ccnc4C(F)(F)F)cc3C2)n1 [Example 20, 1-(2-(5-(4-fluoro-2-(trifluoromethyl)pyridin-3-yl)isoindolin-2-yl)-2-oxoethyl)-1H-1,2,4-triazole-3-carbonitrile]	< 100	< 100
N#Cc1ncn(CC(=O)N2Cc3ccc(-c4c(F)ccnc4Cl)cc3C2)n1 [Example 21, 1-(2-(5-(2-chloro-4-fluoropyridin-3-yl)isoindolin-2-yl)-2-oxoethyl)-1H-1,2,4-triazole-3-carbonitrile]	100 to 1000	< 100
N#Cc1ncn(CC(=O)N2Cc3ccc(-c4c(C(F)(F)F)ccnc4F)cc3C2)n1 [Example 22, 1-(2-(5-(2-fluoro-4-(trifluoromethyl)pyridin-3-yl)isoindolin-2-yl)-2-oxoethyl)-1H-1,2,4-triazole-3-carbonitrile]	100 to 1000	< 100
N#Cc1ncn(CC(=O)N2Cc3ccc(-c4c(F)cncc4Cl)cc3C2)n1 [Example 23, 1-(2-(5-(3-chloro-5-fluoropyridin-4-yl)isoindolin-2-yl)-2-oxoethyl)-1H-1,2,4-triazole-3-carbonitrile]	< 100	100 to 1000
N#Cc1ncn(CC(=O)N2Cc3ccc(-c4c(Cl)ccnc4F)cc3C2)n1 [Example 24, 1-(2-(5-(4-chloro-2-fluoropyridin-3-yl)isoindolin-2-yl)-2-oxoethyl)-1H-1,2,4-triazole-3-carbonitrile]	100 to 1000	100 to 1000
Cn1cc(-c2ccc3c(c2)CN(C(=O)Cn2cnc(C#N)n2)C3)c(C(F)(F)F)n1 [Example 25, 1-(2-(5-(1-methyl-3-(trifluoromethyl)-1H-pyrazol-4-yl)isoindolin-2-yl)-2-oxoethyl)-1H-1,2,4-triazole-3-carbonitrile]	100 to 1000	100 to 1000
